# Experimental data taken from US20240353410A1, “FRET ENZYMATIC SUBSTRATE AND USES THEREOF IN LIVER CANCER” (URTESTE S.A., priority 2021, published 2024).
# Where “and” joins values, the source holds several entries; their conditions need not be identical. Equal values may be shown once. *1 amine or outer side, *2 acyl side, *3 side chain or, on linkers, in order; H or OH if unused. Where no end group is shown, it is not given here. [ ]: non-standard residue; d: D form. Benzoyl(5-NH,2-NO2) = O=C(c1cc(N[*:1])ccc1[N+](=O)[O-])[*:2]; 2Abz = Nc1ccccc1C(=O)O
# How the values were obtained:
# Type in all cases: biochemical, human
# [1] = test system: urine samples taken from healthy persons; assay: Hydrolysis of the chromogenic substrate in urine from healthy subjects (absorbance at 405 nm); settings: for Results of absorbance analysis (increase in absorbance, 405 nm): triplicate
# [2] = test system: proteolytic enzymes in urine from a subject suffering from liver cancer; assay: Hydrolysis of the chromogenic substrate in urine from subjects with liver cancer (absorbance at 405 nm); settings: for Results of absorbance analysis (increase in absorbance, 405 nm): 37° C., 60 minutes, pH 8.0
# Procedure: (§1) The activity of the novel compounds according to the invention was studied in a group of 20 subjects diagnosed with liver cancer using the representative compound according to the invention. […] The remaining compounds according to the invention are characterized by the analogous mechanism of action. For this purpose, the representative compound according to the invention, ABZ^1-Lys^2-Ser^3-Ser^4-Asp^5-ANB^6-NH2, was dissolved in dimethyl sulfoxide (at a concentration of 0.5 mg/mL) and then 50 μL of the solution was mixed with 120 μL of a buffer (200 mM Tris-HCl, pH 8.0) and 80 μL of urine from a subject suffering from liver cancer. The measurement was performed on a 96-well plate designed for measuring absorbance and each sample was analysed in triplicate at the temperature of 37° C. The duration of the measurement was 60 minutes. During the measurement, the wavelength characteristic for the chromophore (ANB-NH2) being released was monitored at the wavelength 405 nm (range 380-430 nm).
# The observed magnitude of increase in absorbance in time is different for each of the examined samples.
# Such a result may be due to the difference in the activity as well as the amount of enzymes responsible for the enzymatic cleavage (proteolysis). […] The result indicates the […] of proteolytic enzymes characteristic of liver cancer.
# [3] = test system: urine samples from patients with another neoplastic disease; assay: Cleavage selectivity: substrate incubated with urine from patients with other cancers; settings: for Measurement 1-3 (increase in absorbance): urine, triplicate
# Procedure: as §1
# Furthermore, the dependence of the cleavage selectivity of the substrate, i.e. the compound according to the invention, on the cancer being examined, was studied. […] This indicates cleavage selectivity of the compounds according to the invention, which makes them suitable for the specific detection of enzymatic activity specific to liver cancer and specific diagnosis of liver cancer.
# [4] = test system: enzyme in the studied material (urine); assay: Dependence of substrate hydrolysis on reaction pH; settings: FIG. 4
# Procedure: Furthermore, measurements concerning the dependence of the proteolytic activity of the representative compound according to the invention on the reaction pH were performed.
# [5] = test system: urine taken from a person diagnosed with liver cancer; assay: RP HPLC analysis of substrate cleavage in urine with liver cancer; settings: randomly selected urine from a person diagnosed with liver cancer
substance,measurement,setting,value
"ABZ-Lys-Ser-Ser-Asp-ANB-NH2 ([2Abz]KSSD-{Benzoyl(5-NH,2-NO2)-NH2}) [chromogenic/FRET peptide substrate; ABZ is 2-aminobenzoic acid, ANB-NH2 is amide of 5-amino-2-nitrobenzoic acid]","Results of absorbance analysis (increase in absorbance, 405 nm)","[1]; urine sample 21, healthy person",0.000000
same,"Results of absorbance analysis (increase in absorbance, 405 nm)","[1]; urine sample 22, healthy person",0.000000
same,"Results of absorbance analysis (increase in absorbance, 405 nm)","[1]; urine sample 23, healthy person",0.000000
same,"Results of absorbance analysis (increase in absorbance, 405 nm)","[1]; urine sample 24, healthy person",0.000000
same,"Results of absorbance analysis (increase in absorbance, 405 nm)","[1]; urine sample 25, healthy person",0.000000
same,"Results of absorbance analysis (increase in absorbance, 405 nm)","[1]; urine sample 26, healthy person",0.000000
same,"Results of absorbance analysis (increase in absorbance, 405 nm)","[1]; urine sample 27, healthy person",0.000000
same,"Results of absorbance analysis (increase in absorbance, 405 nm)","[1]; urine sample 28, healthy person",0.000000
same,"Results of absorbance analysis (increase in absorbance, 405 nm)","[1]; urine sample 29, healthy person",0.000000
same,"Results of absorbance analysis (increase in absorbance, 405 nm)","[1]; urine sample 30, healthy person",0.000000
same,"Results of absorbance analysis (increase in absorbance, 405 nm)","[1]; urine sample 31, healthy person",0.000000
same,"Results of absorbance analysis (increase in absorbance, 405 nm)","[1]; urine sample 32, healthy person",0.000000
same,"Results of absorbance analysis (increase in absorbance, 405 nm)","[1]; urine sample 33, healthy person",0.000000
same,"Results of absorbance analysis (increase in absorbance, 405 nm)","[1]; urine sample 34, healthy person",0.000000
same,"Results of absorbance analysis (increase in absorbance, 405 nm)","[1]; urine sample 35, healthy person",0.000000
same,"Results of absorbance analysis (increase in absorbance, 405 nm)","[1]; urine sample 36, healthy person",0.000000
same,"Results of absorbance analysis (increase in absorbance, 405 nm)","[1]; urine sample 37, healthy person",0.000000
same,"Results of absorbance analysis (increase in absorbance, 405 nm)","[1]; urine sample 38, healthy person",0.000000
same,"Results of absorbance analysis (increase in absorbance, 405 nm)","[1]; urine sample 39, healthy person",0.000000
same,"Results of absorbance analysis (increase in absorbance, 405 nm)","[1]; urine sample 40, healthy person",0.000000
same,Increase in absorbance / hydrolysis in urine,[1]; urine samples 21 to 40 from healthy persons,does not lead to an increase in absorbance
same,Cleavage of the substrate in urine,[2]; all samples 1-20 from persons suffering from liver cancer,underwent cleavage
same,"Results of absorbance analysis (increase in absorbance, 405 nm)","[2]; urine sample W1, liver cancer, triplicate",0.03221 and 0.03351 and 0.02109
same,"Results of absorbance analysis (increase in absorbance, 405 nm)","[2]; urine sample W2, liver cancer, triplicate",0.02276 and 0.02037 and 0.02884
same,"Results of absorbance analysis (increase in absorbance, 405 nm)","[2]; urine sample W4, liver cancer, triplicate",0.02897 and 0.02718 and 0.02812
same,"Results of absorbance analysis (increase in absorbance, 405 nm)","[2]; urine sample W5, liver cancer, triplicate",0.171 and 0.1445 and 0.1684
same,"Results of absorbance analysis (increase in absorbance, 405 nm)","[2]; urine sample W6, liver cancer, triplicate",0.02035 and 0.01966 and 0.02513
same,"Results of absorbance analysis (increase in absorbance, 405 nm)","[2]; urine sample W8, liver cancer, triplicate",0.0186 and 0.0199 and 0.01818
same,"Results of absorbance analysis (increase in absorbance, 405 nm)","[2]; urine sample W9, liver cancer, triplicate",0.0313 and 0.02635 and 0.0275
same,"Results of absorbance analysis (increase in absorbance, 405 nm)","[2]; urine sample W10, liver cancer, triplicate",0.04583 and 0.03322 and 0.03755
same,"Results of absorbance analysis (increase in absorbance, 405 nm)","[2]; urine sample W11, liver cancer, triplicate",0.02091 and 0.01156 and 0.01536
same,"Results of absorbance analysis (increase in absorbance, 405 nm)","[2]; urine sample W12, liver cancer, triplicate",0.03055 and 0.02126 and 0.0183
same,"Results of absorbance analysis (increase in absorbance, 405 nm)","[2]; urine sample W13, liver cancer, triplicate",0.01583 and 0.01383 and 0.01431
same,"Results of absorbance analysis (increase in absorbance, 405 nm)","[2]; urine sample W14, liver cancer, triplicate",0.00394 and 0.00525 and 0.00441
same,"Results of absorbance analysis (increase in absorbance, 405 nm)","[2]; urine sample W15, liver cancer, triplicate",0.01622 and 0.01718 and 0.01233
same,"Results of absorbance analysis (increase in absorbance, 405 nm)","[2]; urine sample W16, liver cancer, triplicate",0.01265 and 0.01251 and 0.00722
same,"Results of absorbance analysis (increase in absorbance, 405 nm)","[2]; urine sample W17, liver cancer, triplicate",0.0012 and 0.0018 and 0.0015
same,"Results of absorbance analysis (increase in absorbance, 405 nm)","[2]; urine sample W18, liver cancer, triplicate",0.01937 and 0.01539 and 0.01955
same,"Results of absorbance analysis (increase in absorbance, 405 nm)","[2]; urine sample W19, liver cancer, triplicate",0.0091 and 0.0093 and 0.0089
same,"Results of absorbance analysis (increase in absorbance, 405 nm)","[2]; urine sample W20, liver cancer, triplicate",0.1528 and 0.1867 and 0.1909
same,Measurement 1-3 (increase in absorbance),"[2]; urine, cancer location Liver, selectivity test of Table 2, triplicate",0.0067 and 0.0072 and 0.0056
same,Cleavage / increase in absorbance in urine of other cancers,"[3]; testicular, intestine, kidney, prostate, pancreatic, bile duct, lung, ovarian and rectum cancer",is not subject to cleavage
same,Measurement 1-3 (increase in absorbance),[3]; cancer location Intestine,0
same,Measurement 1-3 (increase in absorbance),[3]; cancer location Kidney,0
same,Measurement 1-3 (increase in absorbance),[3]; cancer location Lung,0
same,Measurement 1-3 (increase in absorbance),[3]; cancer location Ovary,0
same,Measurement 1-3 (increase in absorbance),[3]; cancer location Pancreas,0
same,Measurement 1-3 (increase in absorbance),[3]; cancer location Prostate,0
same,Measurement 1-3 (increase in absorbance),[3]; cancer location Rectum,0
same,Measurement 1-3 (increase in absorbance),[3]; cancer location Testicle,0
same,Measurement 1-3 (increase in absorbance),[3]; cancer location bile ducts,0
same,Dependence of hydrolysis level on pH,[4],maximum activity at alkaline pH
same,Cleavage products of the substrate (RP HPLC),[5],cleaves into the peptide fragment ABZ-Lys-Ser-Ser-Asp-OH and the chromophore group of the compound (ANB-NH2)
